The first assay deals with T1, ER (Homo sapiens, UniProt P03372).
T1 construct: host or cells: T47D and MCF7 human breast cancer cells
T1 sequence (P03372 1-595): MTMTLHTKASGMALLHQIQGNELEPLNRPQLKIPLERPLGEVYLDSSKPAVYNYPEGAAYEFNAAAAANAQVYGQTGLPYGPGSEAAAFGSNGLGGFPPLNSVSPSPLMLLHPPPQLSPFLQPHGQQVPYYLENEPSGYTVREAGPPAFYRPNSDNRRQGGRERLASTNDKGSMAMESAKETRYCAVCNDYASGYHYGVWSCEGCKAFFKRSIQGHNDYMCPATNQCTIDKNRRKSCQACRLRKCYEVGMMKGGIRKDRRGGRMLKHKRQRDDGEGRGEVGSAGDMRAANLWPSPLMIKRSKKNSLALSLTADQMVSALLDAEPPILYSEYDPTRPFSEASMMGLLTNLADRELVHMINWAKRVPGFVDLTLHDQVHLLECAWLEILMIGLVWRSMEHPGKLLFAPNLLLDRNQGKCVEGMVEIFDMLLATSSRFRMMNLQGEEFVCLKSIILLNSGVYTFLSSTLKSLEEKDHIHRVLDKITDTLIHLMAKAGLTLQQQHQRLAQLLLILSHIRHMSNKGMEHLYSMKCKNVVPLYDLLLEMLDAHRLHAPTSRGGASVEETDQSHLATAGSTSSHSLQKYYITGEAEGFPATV
The assay is described as follows: ER degradation activity, in-cell western blot analysis in T47D cells. In kind it is cell-based. The following applies: 16 hours, Table A does not say which cell line (T47D or MCF7), read-out: Potency (DC50). The essentials: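 Cells were seeded overnight, exposed to diluted compounds for 16 hours, then stained with primary antibodies and with infrared-labelled secondary antibodies (1:1000, 1 h RT). Plates were scanned on a CLX reader, and ER levels were normalised to DMSO-treated wells.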
As for `C[C@@H]1Cc2c([nH]c3ccccc23)[C@@H](c2c(F)cc(N3CCN(CCN4Cc5cc6c(cc5C4)C(=O)N(C4CCC(=O)NC4=O)C6)CC3)cc2F)N1CC(F)F` (stereo partly drawn) [E 54, 3-(6-(2-(4-(4-((1R,3R)-2-(2,2-difluoroethyl)-3-methyl-2,3,4,9-tetrahydro-1H-pyrido[3,4-b]indol-1-yl)-3,5-difluorophenyl)piperazin-1-yl)ethyl)-1-oxo-3,5,6,7-tetrahydropyrrolo[3,4-f]isoindol-2(1H)-yl)piperidine-2,6-dione], the DC50 lay within 0.01 to 0.1 µM.
On to `C[C@@H]1Cc2c([nH]c3ccccc23)[C@@H](c2c(F)cc(-c3ccc(C(=O)N4CCC(N5Cc6cc7c(cc6C5)C(=O)N(C5CCC(=O)NC5=O)C7=O)CC4)nc3)cc2F)N1CC(F)F` (stereo partly drawn) [E 325, 6-(1-(5-(4-((1R,3R)-2-(2,2-difluoroethyl)-3-methyl-2,3,4,9-tetrahydro-1H-pyrido[3,4-b]indol-1-yl)-3,5-difluorophenyl)picolinoyl)piperidin-4-yl)-2-(2,6-dioxopiperidin-3-yl)-6,7-dihydropyrrolo[3,4-f]isoindole-1,3(2H,5H)-dione], for which the DC50 was in the range of 0.01 to 0.1 µM.
`C[C@@H]1Cc2cc(O)ccc2[C@@H](c2c(F)cc(N3CCC(CN4CC(N5Cc6cc7c(cc6C5)C(=O)N(C5CCC(=O)NC5=O)C7=O)C4)CC3)cc2F)N1CC(F)F` (stereo partly drawn) [E 47, 6-(1-((1-(4-((1S,3R)-2-(2,2-difluoroethyl)-6-hydroxy-3-methyl-1,2,3,4-tetrahydroisoquinolin-1-yl)-3,5-difluorophenyl)piperidin-4-yl)methyl)azetidin-3-yl)-2-(2,6-dioxopiperidin-3-yl)-6,7-dihydropyrrolo[3,4-f]isoindole-1,3(2H,5H)-dione]: the DC50 was > 0.1 µM.
For `O=C1CCC(N2C(=O)c3cc4c(cc3C2=O)CN(C2CN(CC3CCN(c5ccc([C@@H]6c7ccc(O)cc7CC[C@@H]6c6ccccc6)cc5)CC3)C2)C4)C(=O)N1` (stereo partly drawn) [E 272, 2-(2,6-dioxopiperidin-3-yl)-6-(1-((1-(4-((1R,2S)-6-hydroxy-2-phenyl-1,2,3,4-tetrahydronaphthalen-1-yl)phenyl)piperidin-4-yl)methyl)azetidin-3-yl)-6,7-dihydropyrrolo[3,4-f]isoindole-1,3(2H,5H)-dione], the DC50 was > 0.1 µM.
The same measure, in the same setting: the same measure for `C[C@@H]1Cc2c([nH]c3ccccc23)[C@@H](c2c(F)cc(N3CCC(CN4CCC(C(=O)N5Cc6cc7c(cc6C5)C(=O)N(C5CCC(=O)NC5=O)C7=O)CC4)C3)cc2F)N1CC(F)F` (stereo partly drawn) [E 57, 6-(1-((1-(4-((1R,3R)-2-(2,2-difluoroethyl)-3-methyl-2,3,4,9-tetrahydro-1H-pyrido[3,4-b]indol-1-yl)-3,5-difluorophenyl)pyrrolidin-3-yl)methyl)piperidine-4-carbonyl)-2-(2,6-dioxopiperidin-3-yl)-6,7-dihydropyrrolo[3,4-f]isoindole-1,3(2H,5H)-dione]: < 0.01 µM; for `C[C@@H]1Cc2c([nH]c3ccccc23)[C@@H](c2c(F)cc(-c3ccc(C(=O)N4CCC(N5Cc6cc7c(cc6C5)C(=O)N(C5CCC(=O)NC5=O)C7=O)CC4)cc3)cc2F)N1CC(F)F` (stereo partly drawn) [E 347, 6-(1-(4′-((1R,3R)-2-(2,2-difluoroethyl)-3-methyl-2,3,4,9-tetrahydro-1H-pyrido[3,4-b]indol-1-yl)-3′,5′-difluoro-[1,1′-biphenyl]-4-carbonyl)piperidin-4-yl)-2-(2,6-dioxopiperidin-3-yl)-6,7-dihydropyrrolo[3,4-f]isoindole-1,3(2H,5H)-dione]: < 0.01 µM.
With `C[C@@H]1Cc2c([nH]c3ccccc23)[C@@H](c2c(F)cc(N3CCC(CN4CCC(N5Cc6cc7c(cc6C5)C(=O)N(C5CCC(=O)NC5=O)C7=O)CC4)CC3)cc2F)N1CC(F)F` (stereo partly drawn) [E 251, 6-(1-((1-(4-((1R,3R)-2-(2,2-difluoroethyl)-3-methyl-2,3,4,9-tetrahydro-1H-pyrido[3,4-b]indol-1-yl)-3,5-difluorophenyl)piperidin-4-yl)methyl)piperidin-4-yl)-2-(2,6-dioxopiperidin-3-yl)-6,7-dihydropyrrolo[3,4-f]isoindole-1,3(2H,5H)-dione], the DC50 is < 0.01 µM.
With `O=C1CCC(N2C(=O)c3cc4c(cc3C2=O)CN(Cc2ccc(N3CC(Nc5ccc([C@@H]6c7ccc(O)cc7CC[C@@H]6c6ccccc6)cc5)C3)nc2)C4)C(=O)N1` (stereo partly drawn) [E 373, 2-(2,6-dioxopiperidin-3-yl)-6-((6-(3-((4-((1R,2S)-6-hydroxy-2-phenyl-1,2,3,4-tetrahydronaphthalen-1-yl)phenyl)amino)azetidin-1-yl)pyridin-3-yl)methyl)-6,7-dihydropyrrolo[3,4-f]isoindole-1,3(2H,5H)-dione], the DC50 was > 0.1 µM.
For `O=C1CCC(N2C(=O)c3cc4c(cc3C2=O)CN(CC(=O)N2CCC3(CC2)CCN(c2ccc([C@@H]5c6ccc(B(O)O)cc6CC[C@@H]5c5ccccc5)cc2)CC3)C4)C(=O)N1` (mixture of isomers) [E 180, Rac-((5R,6S)-5-(4-(9-(2-(6-(2,6-dioxopiperidin-3-yl)-5,7-dioxo-3,5,6,7-tetrahydropyrrolo[3,4-f]isoindol-2(1H)-yl)acetyl)-3,9-diazaspiro[5.5]undecan-3-yl)phenyl)-6-phenyl-5,6,7,8-tetrahydronaphthalen-2-yl)boronic acid], the DC50 lay within 0.01 to 0.1 µM.
`C[C@@H]1Cc2c([nH]c3ccccc23)[C@@H](c2c(F)cc(N3CC(CC(=O)N4Cc5cc6c(cc5C4)C(=O)N(C4CCC(=O)NC4=O)C6)C3)cc2F)N1CC(F)F` (stereo partly drawn) [E 102, 3-(6-(2-(1-(4-((1R,3R)-2-(2,2-difluoroethyl)-3-methyl-2,3,4,9-tetrahydro-1H-pyrido[3,4-b]indol-1-yl)-3,5-difluorophenyl)azetidin-3-yl)acetyl)-1-oxo-3,5,6,7-tetrahydropyrrolo[3,4-f]isoindol-2(1H)-yl)piperidine-2,6-dione]: the DC50 was > 0.1 µM.
For the compound `C[C@@H]1Cc2c([nH]c3ccccc23)[C@@H](c2c(F)cc(N3CCC(C(=O)N4CCC(CN5Cc6cc7c(cc6C5)C(=O)N(C5CCC(=O)NC5=O)C7=O)CC4)CC3)cc2F)N1CC(F)F` (stereo partly drawn) [E 233, 6-((1-(1-(4-((1R,3R)-2-(2,2-difluoroethyl)-3-methyl-2,3,4,9-tetrahydro-1H-pyrido[3,4-b]indol-1-yl)-3,5-difluorophenyl)piperidine-4-carbonyl)piperidin-4-yl)methyl)-2-(2,6-dioxopiperidin-3-yl)-6,7-dihydropyrrolo[3,4-f]isoindole-1,3(2H,5H)-dione], the DC50 is > 0.1 µM.
As to `O=C1CCC(N2C(=O)c3cc4c(cc3C2=O)CN(C(=O)CN2CC3(CCN(c5ccc([C@@H]6c7ccc(O)cc7CC[C@@H]6c6ccccc6)cc5)CC3)C2)C4)C(=O)N1` (mixture of isomers) [E 125, Rac-2-(2,6-dioxopiperidin-3-yl)-6-(2-(7-(4-((1R,2S)-6-hydroxy-2-phenyl-1,2,3,4-tetrahydronaphthalen-1-yl)phenyl)-2,7-diazaspiro[3.5]nonan-2-yl)acetyl)-6,7-dihydropyrrolo[3,4-f]isoindole-1,3(2H,5H)-dione], the DC50 fell in the range of 0.01 to 0.1 µM.
Consider `C[C@@H]1Cc2cc(O)ccc2[C@@H](c2c(F)cc(N3CCC(CN4CCC(N5Cc6cc7c(cc6C5)C(=O)N(C5CCC(=O)NC5=O)C7=O)CC4)CC3)cc2F)N1CC(F)F` (stereo partly drawn) [E 270, 6-(1-((1-(4-((1S,3R)-2-(2,2-difluoroethyl)-6-hydroxy-3-methyl-1,2,3,4-tetrahydroisoquinolin-1-yl)-3,5-difluorophenyl)piperidin-4-yl)methyl)piperidin-4-yl)-2-(2,6-dioxopiperidin-3-yl)-6,7-dihydropyrrolo[3,4-f]isoindole-1,3(2H,5H)-dione], for which the DC50 is > 0.1 µM.

Still in this assay, the particulars now being: compounds 16 hours, Table A does not say whether T47D or MCF7, read-out: Potency (DC50).
In the case of `C[C@@H]1Cc2c([nH]c3ccccc23)[C@@H](c2ncc(C3CCC(C(=O)N4CCC(N5Cc6cc7c(cc6C5)C(=O)N(C5CCC(=O)NC5=O)C7=O)CC4)CC3)cc2F)N1CC(F)F` (stereo partly drawn) [E 406, 6-(1-(4-(6-((1S,3R)-2-(2,2-difluoroethyl)-3-methyl-2,3,4,9-tetrahydro-1H-pyrido[3,4-b]indol-1-yl)-5-fluoropyridin-3-yl)cyclohexane-1-carbonyl)piperidin-4-yl)-2-(2,6-dioxopiperidin-3-yl)-6,7-dihydropyrrolo[3,4-f]isoindole-1,3(2H,5H)-dione], the DC50 was > 0.1 µM.
`Cn1cc(-c2ccc3c(c2)CC[C@H](c2ccccc2)[C@@H]3c2ccc(N3CCC4(CCN(C(=O)CN5Cc6cc7c(cc6C5)C(=O)N(C5CCC(=O)NC5=O)C7=O)CC4)CC3)cc2)cn1` (stereo partly drawn) [E 509, 2-(2,6-dioxopiperidin-3-yl)-6-(2-(9-(4-((1R,2S)-6-(1-methyl-1H-pyrazol-4-yl)-2-phenyl-1,2,3,4-tetrahydronaphthalen-1-yl)phenyl)-3,9-diazaspiro[5.5]undecan-3-yl)-2-oxoethyl)-6,7-dihydropyrrolo[3,4-f]isoindole-1,3(2H,5H)-dione]: the DC50 was > 0.1 µM.
